The values that follow are results of earlier work, collected in patent US9528030B1, “Cobalt inhibitor combination for improved dishing” (Cabot Microelectronics Corporation, priority 2015, dated 2016).

Like-named read-outs stand apart in the source and are kept apart here.

For the series the following is noted: n-octanol-water.

`Nc1n[nH]c(C(=O)O)n1` [3-Amino-1,2,4-triazole-5-carboxylic acid]: the “Azole Compound logP” value is recorded as −1.51.
As to `c1ccc2[nH]nnc2c1` [BTA, benzotriazole], the “Azole Compound logP” value is given as “+1.44”. Also, where the note is “listed as benzotriazole”, the “Azole Compound logP” value is recorded as 1.44.
As for `Nc1nnn[nH]1` [5-Aminotetrazole], the “Azole Compound logP” value is recorded as −0.92.
As for `O=C(O)Cc1nnn[nH]1` [1H-Tetrazole-5-acetic acid], the “Azole Compound logP” value was −1.54.
